Experimental data: US20080188528A1, “Modulators of C3a receptor and methods of use thereof” (priority 2006, published 2008)
Where a name gives a salt, the structure may show the parent alone.

Target: T1, human C3a receptor (C3aR) (Homo sapiens, UniProt Q16581)
T1 construct: expressed in transfected cells
T1 sequence (Q16581 1-482): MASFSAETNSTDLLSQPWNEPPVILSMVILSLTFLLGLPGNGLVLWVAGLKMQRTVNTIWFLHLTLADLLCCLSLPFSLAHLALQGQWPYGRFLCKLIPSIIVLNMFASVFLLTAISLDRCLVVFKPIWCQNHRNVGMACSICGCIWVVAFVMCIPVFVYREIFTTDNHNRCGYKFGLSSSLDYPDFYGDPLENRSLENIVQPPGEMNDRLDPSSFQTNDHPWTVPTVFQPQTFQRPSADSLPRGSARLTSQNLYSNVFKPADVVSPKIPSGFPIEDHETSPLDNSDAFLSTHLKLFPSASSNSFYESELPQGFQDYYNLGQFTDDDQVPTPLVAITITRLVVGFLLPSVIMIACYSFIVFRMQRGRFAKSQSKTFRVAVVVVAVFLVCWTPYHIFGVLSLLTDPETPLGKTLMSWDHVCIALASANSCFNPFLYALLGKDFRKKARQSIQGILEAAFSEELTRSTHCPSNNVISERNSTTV
Experiment: Inhibition of human [125I]-C3a binding to human C3a receptor (SPA, membranes of HEK293 cells expressing recombinant C3aR)
Settings: 0.1 nM [125I]-C3a, 3 hours at room temperature; Table 3
Procedure: Inhibition of human [^125I]-C3a binding to human C3a receptor
Binding of human [^125I]-C3a to human C3a receptor (C3aR) was done using cell membranes from HEK293 cells stably expressing recombinant C3aR, in a homogeneous scintillation proximity assay (SPA). The C3aR cell membranes were pre-coupled over-night at 4° C. to WGA-PVT SPA beads (Amersham) at a ratio of 10 μg cell membrane to 0.5 mg beads/assay. Assay was performed in 96-well microtiter Optiplates (Packard) by mixing coupled beads and 0.1 nM [^125I]-C3a (2200 Ci/mmol, Perkin Elmer Life Sciences), in a total volume of […] binding buffer (20 mM HEPES, pH 7.4, 125 mM NaCl, 5 mM KCl, 1 mM CaCl2, 1 mM MgCl2, 0.25% BSA, 0.2% CHAPS). Test compounds were diluted in DMSO and were tested for their inhibitory potential in the assay (final concentration≦1% DMSO). Incubation was done for 3 hours at room temperature followed by reading in a TopCount scintillation microplate reader. Non-specific binding was determined by adding 1 μM unlabeled C3a (Calbiochem) to the assay mixture. Calculation of the IC50 was done as above using a nonlinear least square fitting program, with Graphpad Prism.

IC50 [nM] | Compound
50 to 500 | N=C(N)NCCC[C@H](NC(=O)c1ccn(C(c2ccccc2)c2ccccc2)c(=O)c1)C(=O)O [Compound 56, (2S)-5-carbamimidamido-2-({[1-(diphenylmethyl)-2-oxo-1,2-dihydropyridin-4-yl]carbonyl}amino)pentanoic acid•TFA]
500 to 20000 | N=C(N)NCCC[C@H](NC(=O)c1ccc(=O)n(C(c2ccccc2)c2ccccc2)c1)C(=O)O [Compound 57, (2S)-5-carbamimidamido-2-({[1-(diphenylmethyl)-6-oxo-1,6-dihydropyridin-3-yl]carbonyl}amino)pentanoic acid•TFA]
< 50 | CC(C)(C(=O)NC(c1ccccc1)c1ccccc1)C(=O)N[C@@H](CCCNC(=N)N)C(=O)O [Compound 58, (2S)-5-carbamimidamido-2-({3-[(diphenylmethyl)amino]-2,2-dimethyl-3-oxopropanoyl}amino)pentanoic acid•TFA]

Same assay, conditions: 0.1 nM [125I]-C3a, 3 hours at room temperature; Table 4

Compound | IC50 [nM]
Cc1ccc(S(=O)(=O)NCCCC[C@H](NC(=O)c2cccn(Cc3ccccc3)c2=O)C(=O)O)cc1 [Compound 61, (2S)-2-{[(1-benzyl-2-oxo-1,2-dihydropyridin-3-yl)carbonyl]amino}-6-{[(4-methylphenyl)sulfonyl]amino} hexanoic acid] | 500 to 20000
Cc1ccc(S(=O)(=O)NCCC[C@H](NC(=O)c2cccn(Cc3ccccc3)c2=O)C(=O)O)cc1 [Compound 67, (2S)-2-{[(1-benzyl-2-oxo-1,2-dihydropyridin-3-yl)carbonyl]amino}-5-{[(4-methylphenyl)sulfonyl]amino}pentanoic acid] | 500 to 20000
Cc1ccc(S(=O)(=O)NCCC[C@H](NC(=O)c2cccn(C(c3ccccc3)c3ccccc3)c2=O)C(=O)O)cc1 [Compound 68, (2S)-2-({[1-(diphenylmethyl)-2-oxo-1,2-dihydropyridin-3-yl]carbonyl}amino)-5-{[(4-methylphenyl)sulfonyl]amino}pentanoic acid] | 500 to 20000
O=C(N[C@@H](CCCNC1=NCCN1)C(=O)O)c1cccn(Cc2ccccc2)c1=O [Compound 70, (2S)-2-{[(1-benzyl-2-oxo-1,2-dihydropyridin-3-yl)carbonyl]amino}-5-(4,5-dihydro-1H-imidazol-2-ylamino)pentanoic acid•TFA] | 500 to 20000
N=C(NCCC[C@H](NC(=O)c1cccn(Cc2ccccc2)c1=O)C(=O)O)N[N+](=O)[O-] [Compound 73, (2S)-2-{[(1-benzyl-2-oxo-1,2-dihydropyridin-3-yl)carbonyl]amino}-5-(nitrocarbamimidamido)pentanoic acid] | 500 to 20000
COC(=O)[C@H](CCCNC(=N)N[N+](=O)[O-])NC(=O)c1cccn(C(c2ccccc2)c2ccccc2)c1=O [Compound 75, methyl (2S)-2-({[1-(diphenylmethyl)-2-oxo-1,2-dihydropyridin-3-yl]carbonyl}amino)-5-(nitrocarbamimidamido)pentanoate] | 500 to 20000
Cc1ccc(S(=O)(=O)NC(=N)NCCC[C@H](NC(=O)c2cccn(Cc3ccccc3)c2=O)C(=O)O)cc1 [Compound 76, (2S)-2-{[(1-benzyl-2-oxo-1,2-dihydropyridin-3-yl)carbonyl]amino}-5-{[(4-methylphenyl)sulfonyl]carbamimidamido} pentanoic acid] | 500 to 20000
Cc1c(C)c(S(=O)(=O)NC(=N)Nc2cccc([C@H](NC(=O)c3cccn(Cc4ccccc4)c3=O)C(=O)O)c2)c(C)c2c1OC(C)(C)CC2 [Compound 78, (2S)-{[(1-benzyl-2-oxo-1,2-dihydropyridin-3-yl)carbonyl]amino}(3-{[(2,2,5,7,8-pentamethyl-3,4-dihydro-2H-chromen-6-yl)sulfonyl]carbamimidamido}phenyl)acetic acid] | 500 to 20000
N=C(N)NCCC[C@H](NC(=O)c1cccn(C(c2ccccc2)c2ccccc2)c1=O)C(N)=O [Compound 81, N-[(1S)-4-carbamimidamido-1-carbamoylbutyl]-1-(diphenylmethyl)-2-oxo-1,2-dihydropyridine-3-carboxamide-TFA] | 500 to 20000

Results, then the molecule that gave them:

IC50 [nM] | Compound
500 to 20000 | NCCCC[C@H](NC(=O)c1cccn(Cc2ccccc2)c1=O)C(=O)O [Compound 60, (2S)-6-amino-2-{[(1-benzyl-2-oxo-1,2-dihydropyridin-3-yl)carbonyl]amino}hexanoic acid•TFA]
50 to 500 | Cc1ccc(S(=O)(=O)NCCCC[C@H](NC(=O)c2cccn(C(c3ccccc3)c3ccccc3)c2=O)C(=O)O)cc1 [Compound 62, (2S)-2-({[1-(diphenylmethyl)-2-oxo-1,2-dihydropyridin-3-yl]carbonyl}amino)-6-{[(4-methylphenyl)sulfonyl]amino}hexanoic acid]
500 to 20000 | N=C(N)NCCCC[C@H](NC(=O)c1cccn(Cc2ccccc2)c1=O)C(=O)O [Compound 63, (2S)-2-{[(1-benzyl-2-oxo-1,2-dihydropyridin-3-yl)carbonyl]amino}-6-carbamimidamidohexanoic acid•TFA]
500 to 20000 | NC(=O)CC[C@H](NC(=O)c1cccn(C(c2ccccc2)c2ccccc2)c1=O)C(=O)O [Compound 64, (2S)-5-amino-2-({[1-(diphenylmethyl)-2-oxo-1,2-dihydropyridin-3-yl]carbonyl}amino)-5-oxopentanoic acid]
50 to 500 | N=C(N)NCC[C@H](NC(=O)c1cccn(C(c2ccccc2)c2ccccc2)c1=O)C(=O)O [Compound 65, (2S)-4-carbamimidamido-2-({[1-(diphenylmethyl)-2-oxo-1,2-dihydropyridin-3-yl]carbonyl}amino)butanoic acid•TFA]
500 to 20000 | CCOC(=O)N=C(NC)NCC[C@H](NC(=O)c1cccn(C(c2ccccc2)c2ccccc2)c1=O)C(=O)O [Compound 66, (2S)-2-({[1-(diphenylmethyl)-2-oxo-1,2-dihydropyridin-3-yl]carbonyl}amino)-4-{[[(ethoxycarbonyl)amino](methylamino)methylene]amino}butanoic acid]
50 to 500 | CS(=O)(=O)NCCC[C@H](NC(=O)c1cccn(C(c2ccccc2)c2ccccc2)c1=O)C(=O)O [Compound 69, (S)-2-(1-benzhydryl-2-oxo-1,2-dihydropyridine-3-carboxamido)-5-(methylsulfonamido)pentanoic acid]
< 50 | O=C(N[C@@H](CCCNC1=NCCN1)C(=O)O)c1cccn(C(c2ccccc2)c2ccccc2)c1=O [Compound 71, (2S)-5-(4,5-dihydro-1H-imidazol-2-ylamino)-2-({[1-(diphenylmethyl)-2-oxo-1,2-dihydropyridin-3-yl]carbonyl}amino)pentanoic acid•TFA]
50 to 500 | N=C(N)Nc1cccc([C@H](NC(=O)c2cccn(Cc3ccccc3)c2=O)C(=O)O)c1 [Compound 72, (2S)-{[(1-benzyl-2-oxo-1,2-dihydropyridin-3-yl)carbonyl]amino}(3-carbamimidamidophenyl)acetic acid•TFA]
50 to 500 | N=C(NCCC[C@H](NC(=O)c1cccn(C(c2ccccc2)c2ccccc2)c1=O)C(=O)O)N[N+](=O)[O-] [Compound 74, (2S)-2-({[1-(diphenylmethyl)-2-oxo-1,2-dihydropyridin-3-yl]carbonyl}amino)-5-(nitrocarbamimidamido)pentanoic acid]
50 to 500 | Cc1ccc(S(=O)(=O)NC(=N)NCCC[C@H](NC(=O)c2cccn(C(c3ccccc3)c3ccccc3)c2=O)C(=O)O)cc1 [Compound 77, (2S)-2-({[1-(diphenylmethyl)-2-oxo-1,2-dihydropyridin-3-yl]carbonyl}amino)-5-{[(4-methylphenyl)sulfonyl]carbamimidamido}pentanoic acid]
50 to 500 | Cc1c(C)c(S(=O)(=O)NC(=N)NCCC[C@H](NC(=O)c2cccn(CC(c3ccccc3)c3ccccc3)c2=O)C(=O)O)c(C)c2c1OC(C)(C)CC2 [Compound 79, (2S)-2-({[1-(2,2-diphenylethyl)-2-oxo-1,2-dihydropyridin-3-yl]carbonyl}amino)-5-{[(2,2,5,7,8-pentamethyl-3,4-dihydro-2H-chromen-6-yl)sulfonyl]carbamimidamido}pentanoic acid•TFA]
< 50 | COC(=O)[C@H](CCCNC(=N)N)NC(=O)c1cccn(C(c2ccccc2)c2ccccc2)c1=O [Compound 80, methyl (2S)-5-carbamimidamido-2-({[1-(diphenylmethyl)-2-oxo-1,2-dihydropyridin-3-yl]carbonyl}amino)pentanoate]
50 to 500 | CCOC(=O)N=C(NCCC[C@H](NC(=O)c1cccn(C(c2ccccc2)c2ccccc2)c1=O)C(=O)O)NC(C)C [Compound 82, (2S)-2-({[1-(diphenylmethyl)-2-oxo-1,2-dihydropyridin-3-yl]carbonyl}amino)-5-{[{(ethoxycarbonyl)amino}(isopropylamino)methylene]amino}pentanoic acid]
